# Values of other authors as cited in patent US20090306049A1, “Treatment of Barrett's Esophagus” (HUBRECHT LABORATORIUM, priority 2005, published 2009).
# Tested on: Barrett's carcinoma
smiles,measurement,setting,value
O=P1(NCCCl)OCCCN1CCCl (stereo not shown) [ifosfamide],overall efficacy of treatment,25 patients treated,essentially ineffective
same,patients cured of metastatic adenocarcinoma in Barrett's oesophagus,25 patients treated,One
same,patients with a partial response,25 patients treated,one
same,toxicity associated with treatment,generally considered,severe toxicity
